Series [1] has as its system SGC-7901 (human gastric cancer cell line). The experiment in a line: MTT in vitro cytotoxicity assay, SGC-7901. The series is classed as cell-based. The following applies: for IC50: SGC-7901, Table 3, MTT, mean ± S.D.; for inhibition at 100 µM: SGC-7901, at 100 µM, read-out: Cell growth inhibition (%) SGC-7901. The protocol: (§1) The lead molecules A2 and all newly prepared diarylamine derivatives B1-13 and C1-11 were evaluated for their in vitro cytotoxic effects against SGC-7901, A875, HepG2 and MARC145 cell lines by the classical MTT [3-(4,5-dimethylthiazol-2-yl)-2,5-diphenyl tetrazolium bromide] assay ([Alley et al., 1988]; [Ke et al., 2012]; [Shi et al., 2012]; [Yu et al., 2015]; [Ke et al., 2019]; [Xu et al., 2019]; [Huang et al., 2021]) using 5-FU (5-Fluorouracil) as a control.
(§2) The cytotoxicity of target compounds was determined with MTT assay ([Alley et al., 1988]; [Ke et al., 2012]; [Shi et al., 2012]; [Yu et al., 2015]; [Ke et al., 2019]; [Xu et al., 2019]; [Huang et al., 2021]). SGC-7901, A875, HepG2 and MARC145 cell lines were obtained from Hubei Biopesticide Engineering Research Centre. All data of the experiment were analyzed with SPSS software, and all assay were performed in triplicate on three independent experiments, and measurement data were expressed as the mean ± S.D.
(§3) The in vitro cytotoxicity of the synthesized compounds against different cell lines (SGC-7901, A875, HepG2 and MARC145) was measured with MTT assay. All the data of the experiment were analyzed with SPSS software, and the 50% inhibitory concentrations (IC50) of each compound for the different cell lines were determined. A control was run for each test, and all assays were performed in triplicate on three independent experiments, and measurement data were expressed as the mean ± S.D.

In series [2] the test system is HepG2 (human hepatocellular liver carcinoma cell line). The series is described as follows: MTT in vitro cytotoxicity assay, HepG2. The series is classed as cell-based. The following applies: for IC50: HepG2, Table 3, MTT, mean ± S.D.; for inhibition at 100 µM: HepG2, at 100 µM, read-out: Cell growth inhibition (%) HepG2. The method, then: as §1, §2, §3
The test system of series [3] is SGC-7901, A875, HepG2 and MARC145 cell lines. The experiment in a line: MTT in vitro cytotoxicity assay, statements over the whole cell panel. The series is classed as cell-based. The following applies: for cytotoxic effect / inhibition activity in words: IC50-based judgement, compared with 5-FU; for inhibition activity in preliminary screening, in words: at 100 µM, inhibition rate higher than control 5-FU. The protocol:
as §1, §2, §3

In the next series the test system is A875 cells. The series is described as follows: Annexin V-FITC/PI dual staining flow cytometry. The series is classed as cell-based, human. The following applies: for apoptotic rate: 24 h, 2×IC50 concentration, FITC(+)PI(−); for apoptosis induction, in words: 24 h treatment. The protocol: Apoptosis induction is one of the important modes of action for antitumor drugs.
Quantitative analysis of apoptotic and necrotic cell death induced by potential molecules was investigated using Annexin V-FITC/PI dual staining assay ([Yu et al., 2015]; [Huang et al., 2021]).
Quantitative analysis of apoptotic and necrotic cell death induced by the test compounds was performed by Annexin V-FITC apoptosis detection kit according to the manufacturer’s instructions (Abcam). Briefly, 2×10^5 A875 cells were seeded in 6-well plates and grown overnight. […] Cells treated with 0.1% DMSO were served as solvent control. Following treatment cells were harvested, washed twice with ice-cold PBS and resuspended in binding buffer. Then the cells were stained by adding 5 µl of Annexin V-FITC and 5 µl of propidium iodide, sit for 5 min at room temperature in the dark and analyzed by flow cytometry (Beckman coulter FC500).
Background: Flow cytometry measures light scatter and fluorescence of single cells or particles in a stream.

The test system of a further series is AURORA. The series is described as follows: ADP-GLO kinase inhibitory assay, AURORA. The format is biochemical. The protocol:
(§4) Based on the aforementioned results for the potential mechanism of action, the kinase inhibitory profile of compounds C6 and C11 were screened at two dose concentration of 10 and 1 µM over a panel of 15 kinases, and the kinase inhibitory activities are listed in supporting information (Supplementary Table S1).
(§5) The kinase inhibitory profile of compounds C6 and C11 were screened at two dose concentration of 10 and 1 µM over a panel of 15 kinases, and each assay was repeated twice. All the inhibitory assays were carried out through kinase profiling services provided by HY Biotech (Chinese), in which ADP-GLO kinase assays were used.
(§6) The kinase inhibitory profile of compounds C6 and C11 were screened at two dose concentration of 10 µM and 1 µM over a panel of 15 kinases, and each assay was repeated twice. All the inhibitory assays were carried out through kinase profiling services provided by HY Biotech (Chinese), in which ADP-GLO kinase assays were used.
Background: ADP-Glo first removes unused ATP, then detects ADP through luciferase.

In another series the target is CDK2/A2 (Homo sapiens, UniProt P24941). The series is described as follows: ADP-GLO kinase inhibitory assay, CDK2/A2. The format is biochemical. The settings on record: for inhibition of CDK2/A2, in words: at 1 μM. The method, then:
as §4, §5, §6

A further series concerns the target ERK1 (Homo sapiens, UniProt P27361). The experiment in a line: ADP-GLO kinase inhibitory assay, ERK1. The series is classed as biochemical. The method, then: as §4, §5, §6
A further series has as its target T1, PDK1 (Homo sapiens, UniProt O15530).
T1 sequence (O15530 1-556): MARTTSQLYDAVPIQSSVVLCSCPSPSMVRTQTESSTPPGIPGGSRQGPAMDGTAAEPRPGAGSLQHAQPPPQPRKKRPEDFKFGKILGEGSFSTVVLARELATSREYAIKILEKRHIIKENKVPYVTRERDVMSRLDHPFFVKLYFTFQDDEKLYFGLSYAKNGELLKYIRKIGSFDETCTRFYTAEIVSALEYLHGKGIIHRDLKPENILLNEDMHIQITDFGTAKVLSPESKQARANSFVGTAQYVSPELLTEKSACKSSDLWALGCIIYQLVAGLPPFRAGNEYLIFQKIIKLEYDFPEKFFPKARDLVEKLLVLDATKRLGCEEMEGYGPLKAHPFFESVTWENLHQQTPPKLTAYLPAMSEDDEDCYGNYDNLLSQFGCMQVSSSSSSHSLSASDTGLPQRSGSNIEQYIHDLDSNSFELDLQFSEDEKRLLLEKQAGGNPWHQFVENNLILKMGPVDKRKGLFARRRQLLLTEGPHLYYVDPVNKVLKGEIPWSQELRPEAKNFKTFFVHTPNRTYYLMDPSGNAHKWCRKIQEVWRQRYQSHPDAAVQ
The experiment in a line: ADP-GLO kinase inhibitory assay, PDK1. The format is biochemical. The protocol: as §4, §5, §6

Another series deals with RIPK3 (Homo sapiens, UniProt Q9Y572). The experiment in a line: ADP-GLO kinase inhibitory assay, RIPK3. The series is classed as biochemical. The protocol:
as §4, §5, §6

For a further series, the target named is PIM1 (Homo sapiens, UniProt P11309). The experiment in a line: ADP-GLO kinase inhibitory assay, PIM1. The format is biochemical. The protocol: as §4, §5, §6

The IC50 is the concentration at which inhibition is half-maximal. As usually defined, the inhibition is the drop in the measured response relative to a control, in per cent.

SMILES strings stand for the structures. “Also recorded” adds a separate entry of the source.

RIPK3, sequence (Q9Y572 whole entry, species assumed): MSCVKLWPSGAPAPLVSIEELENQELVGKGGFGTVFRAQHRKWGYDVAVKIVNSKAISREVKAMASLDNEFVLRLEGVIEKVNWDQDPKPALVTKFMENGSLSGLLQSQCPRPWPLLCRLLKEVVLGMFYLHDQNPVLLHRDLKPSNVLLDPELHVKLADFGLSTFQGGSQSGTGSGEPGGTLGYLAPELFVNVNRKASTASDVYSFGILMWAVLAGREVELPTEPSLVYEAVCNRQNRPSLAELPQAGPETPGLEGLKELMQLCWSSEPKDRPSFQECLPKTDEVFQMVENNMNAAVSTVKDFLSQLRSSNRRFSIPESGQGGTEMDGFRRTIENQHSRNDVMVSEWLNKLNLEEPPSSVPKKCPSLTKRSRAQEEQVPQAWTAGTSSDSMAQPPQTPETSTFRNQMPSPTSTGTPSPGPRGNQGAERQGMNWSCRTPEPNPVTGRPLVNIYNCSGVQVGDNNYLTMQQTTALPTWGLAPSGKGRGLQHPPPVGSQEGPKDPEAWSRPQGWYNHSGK
ERK1, sequence (P27361 whole entry, species assumed): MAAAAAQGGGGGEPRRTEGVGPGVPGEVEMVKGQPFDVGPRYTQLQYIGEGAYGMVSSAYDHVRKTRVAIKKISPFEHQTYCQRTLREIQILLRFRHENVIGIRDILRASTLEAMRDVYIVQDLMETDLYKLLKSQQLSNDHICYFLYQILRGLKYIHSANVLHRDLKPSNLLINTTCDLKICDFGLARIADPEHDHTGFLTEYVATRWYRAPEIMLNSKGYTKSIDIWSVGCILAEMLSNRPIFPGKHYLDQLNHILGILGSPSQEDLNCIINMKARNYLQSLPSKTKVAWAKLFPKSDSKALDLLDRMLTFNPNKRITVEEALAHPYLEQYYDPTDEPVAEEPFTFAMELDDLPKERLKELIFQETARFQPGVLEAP
PIM1, sequence (P11309 whole entry, species assumed): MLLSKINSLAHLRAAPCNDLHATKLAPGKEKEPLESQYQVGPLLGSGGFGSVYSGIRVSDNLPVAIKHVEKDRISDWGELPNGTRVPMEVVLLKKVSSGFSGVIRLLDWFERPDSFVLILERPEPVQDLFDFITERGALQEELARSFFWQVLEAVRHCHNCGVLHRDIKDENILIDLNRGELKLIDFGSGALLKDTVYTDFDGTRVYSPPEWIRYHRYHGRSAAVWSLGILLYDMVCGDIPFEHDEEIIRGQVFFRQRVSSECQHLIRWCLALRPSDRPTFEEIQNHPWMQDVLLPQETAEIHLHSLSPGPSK

Regarding `O=C(Nc1cccc(C(F)(F)F)c1)c1cccnc1Nc1cccc(C(F)(F)F)c1` [C6, N-(3-(Trifluoromethyl)phenyl)-2-((3-(trifluoromethyl)phenyl)amino)nicotinamide], the IC50 in series [1] was 5.53 ± 0.82 µM; in [2], 9.99 ± 1.58 µM; in series [3] (SGC-7901, A875, HepG2, MARC145, read-out: IC50 values, span over the tested cell lines), 5.53 to 12.8 µM. Further, the values for the inhibition at 100 µM in series [1] and in [2] were 90.5 ± 3.8% and 91.3 ± 3.7%, respectively. Besides, the “cytotoxic effect / inhibition activity in words” value in series [3] was “good cytotoxic effect; also recorded: higher inhibition activities compared to the control 5-FU”. The “dose-response analysis of cell growth inhibition, in words” value in series [3] (SGC-7901, A875, HepG2, MARC145) is “significant concentration dependence”. For the same compound, the “inhibition activity in preliminary screening, in words” value in series [3] is “good inhibition activity”. In the series on A875 cells, this compound yielded an apoptotic rate of 12%. Further, the “apoptosis induction, in words” value in the series on A875 cells was “induced apoptotic changes”. Further, the results for the “Inhibition activity (%) AURORA” value in the series on AURORA (1 µM) and in the series on AURORA (10 µM) were 4.35% and 7.74%, respectively. Further, the inhibition at 1 µM is 23.4% at CDK2/A2; 6.76% against ERK1; 10.3% against PDK1; -1.37% against RIPK3; 12.8% on PIM1. Further, the inhibition at 10 µM against CDK2/A2 is 15%; against ERK1 it was -6.1%; against PDK1, 10.1%; against RIPK3, 16.8%; on PIM1, 15.8%. Besides, the “inhibition of CDK2/A2, in words” value on CDK2/A2 is listed as “certain inhibitions”.
Consider `O=C(Nc1ccc(Cl)nc1)c1cccnc1Nc1cccc(C(F)(F)F)c1` [C11, N-(6-Chloropyridin-3-yl)-2-((3-(trifluoromethyl)phenyl)amino)nicotinamide], for which the values for the IC50 in [1] and in [2] were 9.13 ± 3.52 µM and 10.2 ± 2.04 µM, respectively. Also, the results for the inhibition at 100 µM in [1] and in series [2] were 85.6 ± 4.3% and 85.7 ± 2.4%, respectively. Moreover, in series [3], the “cytotoxic effect / inhibition activity in words” value is “good cytotoxic effect; also recorded: higher inhibition activities compared to the control 5-FU”. In series [3] (SGC-7901, A875, HepG2, MARC145), the “dose-response analysis of cell growth inhibition, in words” value is reported as “significant concentration dependence”. The “inhibition activity in preliminary screening, in words” value in series [3] was “good inhibition activity”. Further, in the series with A875 cells, the apoptotic rate is 27%. Moreover, the “apoptosis induction, in words” value in the series on A875 cells was “induced apoptotic changes”. In addition, the results for the “Inhibition activity (%) AURORA” value with AURORA (1 µM) and in the series with AURORA (10 µM) were 9.65% and 12.58%, respectively. Moreover, the inhibition at 1 µM against CDK2/A2 was 26.8%; against ERK1 it was 18.2%; on PDK1 it was 20.3%; against RIPK3, 2.34%; on PIM1 it was 23.1%. Moreover, the inhibition at 10 µM at CDK2/A2 was 16.7%; against ERK1, 3.07%; against PDK1, 10.9%; against RIPK3 it was 10.4%; on PIM1, 10.3%. On CDK2/A2, the “inhibition of CDK2/A2, in words” value is recorded as “some inhibitions”.

These data come from article PMC9315260, “Diarylamine-Guided Carboxamide Derivatives: Synthesis, Biological Evaluation, and Potential Mechanism of Action” (Frontiers in Chemistry, 2022).
